# Data reported in US20250270289A1, “SEQUENCE-DEFINED POLYMERS WITH ONE OR MORE AZIDES, METHODS OF MAKING, AND METHODS OF USE THEREOF” (Yale University, priority 2021, published 2025).
# Read-outs that look alike come from different tables or passages of the source. Starred links: 1 amine or outer side, 2 acyl side, 3 side chain; linkers in the order of their positions; H or OH if unused. Non-standard residues stand in square brackets, D forms with d. Residues, ends and D or L forms follow the SMILES beside them. X1 = O=C([C@H](Cc1ccc(NP(=O)(O)O)cc1)N[*:1])[*:2]
# How the values were obtained:
# [1] = target: T1, pAcFRS.1.t1 synthetase (Methanocaldococcus jannaschii, UniProt Q57834, A167D/D158G/D286R/I159C/L162R/R257G/Y32L); assay: In vitro tRNA charging assay; type: biochemical; details: purified pAcFRS.1.t1, 1 mM amino acid
# T1 construct: His; made in house
# T1 sequence (Q57834 whole entry Y32L/D158G/I159C/L162R/A167D/R257G/D286R): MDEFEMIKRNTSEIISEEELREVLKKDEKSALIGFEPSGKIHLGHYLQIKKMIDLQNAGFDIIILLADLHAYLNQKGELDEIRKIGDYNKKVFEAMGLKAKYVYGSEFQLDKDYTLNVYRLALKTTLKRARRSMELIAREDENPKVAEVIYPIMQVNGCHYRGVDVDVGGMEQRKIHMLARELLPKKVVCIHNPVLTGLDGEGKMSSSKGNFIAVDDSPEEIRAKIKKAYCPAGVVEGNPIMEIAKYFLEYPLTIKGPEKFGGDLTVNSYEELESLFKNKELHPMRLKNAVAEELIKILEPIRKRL
# Description: The pAcFRS.1.t1 synthetase was His-purified, and stored in 50 mM KCl, 50 mM HEPES-KOH at pH 7.5, 10% glycerol. The cognate tRNA was in vitro transcribed (IVT) from dsDNA template containing a T7 promoter, hammerhead ribozyme and tRNA, as described previously(Fechter et al., 1998). The IVT buffer consists of 40 mM Tris-HCl at pH8.0, 0.01% Triton X, 30 mM MgCl2, 2 mM Spermidine, 1 mM DTT. For a 100 μL reaction, 4 mM riboNTPs (N0466S, NEB), 100U T7 (M0251S, NEB) and 1-2 μM dsDNA template were added. The reaction was incubated at 37° C. for 3 h. Afterwards, the sample was diluted 5× with reaction buffer, and heated to 65C for 1 h to promote hammerhead cleavage. After a phenol:chloroform extraction, the cleaved tRNA was separated from other fragments using a TBE-Urea gel. Finally, the tRNA was refolded by slowly cooling the sample from 95° C. to r.t. At 65° C., MgCl2 was added to a final concentration of 10 mM.
# aaRS specificity was measured using in vitro charging. The reaction composition was 150 mM HEPES-KOH at pH 7.5, 10 mM MgCl2, 2.5 mM DTT, 0.2 mg/mL BSA, 2 mM ATP, 1 mM amino acid, 500 nM aaRS and 750 nM tRNA. The reactions were incubated at 37° C. for 30 min. Afterwards, they were quenched using loading buffer (0.1 M sodium acetate pH 5.0, 8 M urea, 0.05% bromophenol blue, 0.05% xylene cyanol FF). The samples were then analyzed on an acid-urea PAGE gel (8 M urea, 0.1 M sodium acetate at pH 5.2) (Varshney et al., 1991), that was prerun in running buffer (0.1 M NaOAc at pH 5.2) for 20 min at 13 W. After sample loading, the gel was run at a constant 13 W for 20 h. The tRNA was visualized with ethidium bromide staining.
# [2] = Reduction of pAzF to pAF under purification pH and temperatures (HRMS); type: physicochemical; details: pH 6.6, 7.2, 7.9; 4, 20, 34 or 80° C.
# From the text: High-resolution mass spectrometry (HRMS) data was collected using an Agilent iFunnel 6550 Quadrupole Time-Of-Flight (QTOF) MS with an electrospray ionization (ESI) source, coupled to an Agilent Infinity 1290 ultra-high-performance liquid chromatography (UHPLC) system with an Agilent Eclipse Plus C18 1.8 μm, 4.6×50 mm column. Solvents used were (solvent A) water 0.1% formic acid and (solvent B) CH3CN 0.1% formic acid. Mass spectra were gathered using Dual Agilent Jet Stream (AJS) ESI in positive mode. The mass range was set from 110 to 1700 m/z with a scan speed of 3 scan/second. The capillary and nozzle voltages were set to 5500 and 2000 V, respectively. […] MS data were acquired with MassHunter Workstation Data Acquistion (Version B.06.01, Agilent Technologies) and analyzed using MassHunter Qualitative Analysis (Version B.07.00, Agilent Technologies). Protein quantification was performed using peptide standards with the same sequence as the digested peptides, or based on calibration curves produced using dilutions series of peptide(1TAG)-GFP.
# Experiments were designed to assess if reduction of pAzF residues occurs during protein purification or MS analysis. Experiments evaluated if pAzF is reduced over a range of pH (6.6, 7.2, 7.9) and temperatures (4, 20, 34, or 80° C.) used during sample purification, and found minimal (<1%) reduction to pAF under all conditions. […]
# [3] = target: Src SH2 domain (Homo sapiens, UniProt P12931); assay: Fluorescence polarization assay, direct binding and competition with FITC-pTyrEEI
# Description: They were then induced with 1 mM IPTG and grown overnight. Cells were pelleted prior to freezing at −80° C. Pellets were resuspended in lysis buffer (50 mM Tris, pH 8.0, 500 mM NaCl, 0.5 mM EDTA, 0.5 mM EGTA, 10% glycerol) and then sonicated. Clarified lysate was incubated with Glutathione Sepharose 4B resin, washed (50 mM Tris, pH 8.0, 50 mM NaCl, 10% glycerol) and eluted from resin in elution buffer (20 mM reduced glutathione, 50 mM Tris, pH 8.0, 50 mM NaCl, 10% glycerol, pH 8.0). […] Protein was stored at −80° C. […] Kd was established using one-site binding model in GraphPad Prism version 7 for Mac (GraphPad Software, La Jolla, CA, USA). Unlabeled peptides were diluted to 100 μM in assay buffer. […] A full-dissociation control was established with 10 nM peptide in assay buffer. […] EC50 for percent inhibition was estimated by plotting log10[agonist] vs. response and fitting a four-parameter variable slope fit in GraphPad Prism.
molecule,measurement,setting,value
"Nc1ccc(C[C@H](N)C(=O)O)cc1 [pAF, para-amino-phenylalanine]",charging onto the cognate tRNA,[1],no charging
"[N-]=[N+]=Nc1ccc(C[C@H](N)C(=O)O)cc1 [pAzF, para-azido-phenylalanine]",reduction to pAF,[2],< 1%
same,charging onto the cognate tRNA,[1],charged
CC[C@H](C)[C@H](NC(=O)[C@@H]1CCCN1C(=O)[C@@H](NC(=O)[C@H](CCC(=O)O)NC(=O)[C@H](CCC(=O)O)NC(=O)[C@H](Cc1ccc(NP(=O)(O)O)cc1)NC(=O)[C@H](CCC(N)=O)NC(=O)[C@@H]1CCCN1C(=O)[C@@H](N)CCC(=O)O)[C@@H](C)CC)C(=O)N[C@@H](Cc1ccc(O)cc1)C(=O)N[C@@H](CC(C)C)C(=O)O [pnY peptide] (H-EPQ[X1]EEIPIYL-OH; N-terminus and C-terminus assumed),EC50,[3],12.8 µM
same,Decrease in binding affinity with SH2,"[3]; pnY peptide EC50 compared with […], Src SH2",17 fold
N[C@@H](Cc1ccc(O)cc1)C(=O)O [tyrosine],charging onto the cognate tRNA,[1],no charging
"EPQYEEIPIYL [Tyr peptide, reference compound]",EC50,[3]; competition with FITC-labeled pTyr peptide,No increase in unbound FITC-pTyr peptide
